Experimental data reported in US7754768B2, “Methods and compositions for modulating alpha adrenergic receptor activity” (Allergan, Inc., priority 2000, dated 2010).

Key:
[1] = system: rat spinal nerve ligation allodynia model; experiment: Rat spinal nerve ligation allodynia model (chronic pain, von Frey tactile allodynia); assay type: in vivo; conditions: 30 minutes after administration
Description: (§1) The physiological activity of these compounds was tested using four models: a rat locomotor model to assess sedation, an assay of cardiovascular activity in monkeys, a rat thermal paw withdrawal assay (Dirig et al., J. Neurosci. Methods 76:183-191 (1997) to test the alleviation of acute pain, and the rat spinal nerve ligation allodynia model (Kim and Chung, Pain 50:355-363 (1992) to assess the alleviation of neuropathic pain and central sensitization typical of chronic pain. As is known to those of skill in the art, these tests are established pharmacological methods for determining sedation, cardiovascular effects, acute pain and chronic pain, respectively, of pharmaceutical agents.
A model for chronic pain (in particular peripheral neuropathy such as causalgia) involves the surgical ligation of the L5 (and optionally the L6) spinal nerves on one side in experimental animals. Rats recovering from the surgery gain weight and display a level of general activity similar to that of normal rats. However, these rats develop abnormalities of the foot, wherein the hindpaw is moderately everted and the toes are held together. More importantly, the hindpaw on the side affected by the surgery appears to become sensitive to pain from low-threshold mechanical stimuli, such as that producing a faint sensation of touch in a human, within about 1 week following surgery. This sensitivity to normally non-painful touch is called “tactile allodynia” and lasts for at least two months. The response includes lifting the affected hindpaw to escape from the stimulus, licking the paw and holding it in the air for many seconds. None of these responses is normally seen in the control group.
Rats are anesthetized before surgery. The surgical site is shaved and prepared either with betadine or Novacaine. Incision is made from the thoracic vertebra X111 down toward the sacrum. Muscle tissue is separated from the spinal vertebra (left side) at the L4-S2 levels. The L6 vertebra is located and the transverse process is carefully removed with a small rongeur to expose the L4-L6 spinal nerves. The L5 and L6 spinal nerves are isolated and tightly ligated with 6-0 silk thread. The same procedure is done on the right side as a control, except no ligation of the spinal nerves is performed.
A complete hemostasis is confirmed, then the wounds are sutured. A small amount of antibiotic ointment is applied to the incised area, and the rat is transferred to the recovery plastic cage under a regulated heat-temperature lamp. […]
Tactile allodynia is measured prior to and 30 minutes after drug administration using von Frey hairs that are a series of fine hairs with incremental differences in stiffness. […] The applied force has been calculated to range from 0.41 to 15.1 grams. […]

male Sprague-Dawley rats = experiment: Rat locomotor model to assess sedation (exploratory activity); assay type: in vivo; conditions: 30 minutes after injection, versus vehicle controls
Description: as §1
To test sedation, six male Sprague-Dawley rats were given up to 3 mg/kg of each compound in a saline or DMSO vehicle by intraperitoneal injection (i.p.). Sedation was graded 30 minutes following administration of the drug by monitoring locomotor skills as follows.
The Sprague-Dawley rats are weighed and 1 ml/kg body weight of an appropriate concentration (ie. 3 mg/ml for a final dose of 3 mg/kg) drug solution is injected intraperitoneally. FORMULA 3 is formulated in approximately 10% DMSO and FORMULA 2 and FORMULA 4 are formulated in 50% DMSO. The results are compared to 29 historical controls that were injected with 1 ml/kg saline or 50% DMSO. Rat activity is then determined 30 minutes after injection of the drug solution. Rats are placed in a dark covered chamber and a digicom analyzer (Omnitech Electronic) quantitates their exploratory behavior for a five-minute period. The machine records each time the rat interrupts an array of 32 photoelectric beams in the X and Y orientation.
FORMULA 2 and FORMULA 3 were tested at 1 mg/kg and FORMULA 4 was tested at 3 mg/kg. Thus, the compounds are not sedating.

visceral pain = experiment: Treatment of visceral pain in a colon cancer patient; assay type: in vivo, human; conditions: intravenous infusion twice daily, after two days, one patient
Description: A patient suffering from colon cancer and undergoing chemotherapy experiences severe visceral pain associated with this primary condition. Treatment of this pain with opiates has been ineffective to provide substantial relief. The patient is given a therapeutic amount of FORMULA 3 by intravenous infusion in a pharmaceutically acceptable vehicle. The treatment is given twice daily. […] Under the same facts as Example 7, except the patient is given FORMULA 2 instead of FORMULA 3.

[2] = system: allodynia resulting from shingles; experiment: Treatment of allodynia resulting from shingles in a patient; assay type: in vivo, human; conditions: oral capsule as needed, after two days' treatment, one patient
Description: A person in generally good physical condition suffers from serious pain to their upper body due caused by contact of their skin with their clothing. The patient is unable to wear clothing on their upper body without severe pain. […] The patient is given a therapeutically effective oral dose of FORMULA 3 in capsule form as needed for the treatment of pain. […] Same facts as in Example 5, except the patient is given a therapeutically effective oral dose of FORMULA 2 in capsule form as needed for the treatment of pain.

[3] = system: African Green monkeys made glaucomatous; experiment: Intraocular pressure in glaucomatous African Green monkeys after oral dosing; assay type: in vivo, African Green monkey
Description: African Green monkeys are made glaucomatous and divided into three groups. Ocular hypertension is measured before the administration of any drug, then one of each group of animals is given an oral dose of either a) glucose (negative control); b) a formulation of FORMULA 2 at a dosage of either 2 mg/kg or 7 mg/kg, or c) Diamox® (acetazolamide; a carbonic anhydrase inhibitor used for treatment of glaucoma) (positive control) at a concentration of 20 mg/kg. Intraocular pressure is measured at 0, 6, 12, and 24 hours following administration of each formulation.

Compound: OCCNC(=S)NCc1ccc(F)cc1 [AGN196204]
- Reduction of the response to tactile stimuli that indicate tactile allodynia (analgesic in chronic pain model) [1]: able to reduce the response to the tactile stimuli

Compound: OCCNC(=S)NCc1ccc(F)cc1 [FORMULA 3]
- Sedation: reduction in the exploratory activity of the rats (male Sprague-Dawley rats; 1 mg/kg i.p.): not sedating
- Patient-reported visceral pain (visceral pain): significant alleviation
- Patient-reported allodynia resulting from shingles [2]: markedly reduced
- Reduction of the response to tactile stimuli that indicate tactile allodynia (analgesic in chronic pain model) [1]: analgesic in a model of chronic pain

Compound: OCCNC(=S)NCc1cccc(Cl)c1F [FORMULA 2, 1-(3-chloro-2-fluorobenzyl)-3-(2-hydroxyethyl)-thiourea]
- Change in Intraocular Pressure (%) ([3]; oral 2 mg/kg, 0 hours): 0%
- Change in Intraocular Pressure (%) ([3]; oral 2 mg/kg, 6 hours): −18%
- Change in Intraocular Pressure (%) ([3]; oral 2 mg/kg, 12 hours): −32%
- Change in Intraocular Pressure (%) ([3]; oral 2 mg/kg, 24 hours): −3%
- Change in Intraocular Pressure (%) ([3]; oral 7 mg/kg, 0 hours): 0%
- Change in Intraocular Pressure (%) ([3]; oral 7 mg/kg, 6 hours): −22%
- Change in Intraocular Pressure (%) ([3]; oral 7 mg/kg, 12 hours): −26%
- Change in Intraocular Pressure (%) ([3]; oral 7 mg/kg, 24 hours): −15%
- Sedation: reduction in the exploratory activity of the rats (male Sprague-Dawley rats; 1 mg/kg i.p.): not sedating
- Patient-reported visceral pain (visceral pain): significant alleviation
- Patient-reported allodynia resulting from shingles [2]: markedly reduced
- Reduction of the response to tactile stimuli that indicate tactile allodynia (analgesic in chronic pain model) [1]: able to reduce the response to the tactile stimuli

Compound: OCCNC(=S)NCc1ccccc1F [FORMULA 4, reference compound]
- Sedation: reduction in the exploratory activity of the rats (male Sprague-Dawley rats; 3 mg/kg i.p.): not sedating
- Analgesic activity (tactile allodynia) ([1]; i.p. doses up to 3 mg/kg): no analgesic activity

Compound: CC(=O)Nc1nnc(S(N)(=O)=O)s1 [Diamox ®, acetazolamide, reference compound]
- Change in Intraocular Pressure (%) ([3]; oral 20 mg/kg (positive control), 0 hours): 0%
- Change in Intraocular Pressure (%) ([3]; oral 20 mg/kg (positive control), 6 hours): −38%
- Change in Intraocular Pressure (%) ([3]; oral 20 mg/kg (positive control), 12 hours): −41%
- Change in Intraocular Pressure (%) ([3]; oral 20 mg/kg (positive control), 24 hours): −18%
